Values after ≈ are worked out from the molar mass of the structure shown.
How the values were obtained:
C. albicans NCPF3281 = assay: Candida panel MIC, serial dilution in 96-well plates; type: cell-based, Candida albicans; conditions: Candida albicans, NCPF3281; Table 4, common panel; 24 hours, ≥50% inhibition; read-out: MIC C. albicans NCPF3281
Method: (§1) The minimum inhibitory concentration of test compounds were determined in a panel of Candida species (see Table 4 below), using the a serial dilution method in 96-well plates using the following protocol.
(§2) Starter cultures of fungal strains to be tested were grown in 3 mL of RPMI 2% glucose media incubated at 37° C. with shaking at 200 rpm overnight. The culture media used was 900 mL H2O; 10.4 g RPMI 1640 (with L-glutamine and a pH indicator but without bicarbonate); 34.5 g MOPS and 18 g glucose. The pH of the media was adjusted to 7.0 with 1 M sodium hydroxide.
(§3) Solutions of the compound to be tested were prepared by dissolving the compound in DMSO and subsequently into media to the desired concentrations. 200 μL of compound solution was then added to the wells of the 96-well plate using a serial dilution method row-by row of the plate to give a compound concentration gradient across the plate of from 128 μg/mL to 0.25 μg/mL. The last two rows of each plate were control rows containing the culture media alone and the media plus fungi.
(§4) The fungi starter cultures were diluted 1:10 in water in cuvettes. This was then further diluted to an optical density (OD600) of 0.01 in media. 100 μL of the fungi was added to each well giving a starting concentration of fungus of 0.5-5×10^5/mL. One species of fungus was used on each plate. The plates were then held at 37° C. for 24 hours.
(§5) A plate reader was used to measure growth in each well at OD530 nm and the MIC was determined for each test compound. The MIC is defined as the lowest concentration giving rise to inhibition of ≥50% of that of the drug-free control well containing the fungus and media.

C. glabrata NCPF8018 = assay: as above; type: cell-based, Candida glabrata; conditions: Nakaseomyces glabratus, NCPF8018; Table 4, common panel; 24 hours, ≥50% inhibition; read-out: MIC C. glabrata NCPF8018
Method: as §1, §2
(§6) Solutions of the compound to be tested were prepared by dissolving the compound in DMSO and subsequently into media to the desired concentrations. […] The last two rows of each plate were control rows containing the culture media alone and the media plus fungi.
as §4, §5

C. krusei NCPF3876 = assay: microbe, parasite or virus in culture; type: cell-based, Candida krusei; conditions: Pichia kudriavzevii, NCPF3876; Table 4, common panel; 24 hours, ≥50% inhibition; read-out: MIC C. krusei NCPF3876
Method: as §1, §2, §6, §4, §5

C. parapsilosis NCPF3209 = assay: microbe, parasite or virus in culture; type: cell-based, Candida parapsilosis; conditions: Lodderomyces parapsilosis, NCPF3209; Table 4, common panel; 24 hours, ≥50% inhibition; read-out: MIC C. parapsilosis NCPF3209
Method: as §1, §2, §6, §4, §5

Candida auris TDG2211 = assay: microbe, parasite or virus in culture; type: cell-based; conditions: Candidozyma auris, TDG2211; Table 4, extended panel; 24 hours, ≥50% inhibition; read-out: MIC Candida auris TDG2211
Method: as §1, §2, §6, §4, §5
(§7) The Candida auris strains shown in Table 7 were either taken from the National Collection of Pathogenic Fungi (NCPF) or collected as part of ongoing surveillance studies. The strains were characterised as follows.

Candida auris TDG2506 = assay: microbe, parasite or virus in culture; type: cell-based; conditions: Candidozyma auris, TDG2506; Table 4, extended panel; 24 hours, ≥50% inhibition; read-out: MIC Candida auris TDG2506
Method: as §1, §2, §6, §4, §5, §7

C. auris TDG1912 = assay: Candida panel MIC, serial dilution in 96-well plates; type: cell-based; conditions: Candidozyma auris, TDG1912; Table 4; 24 hours, ≥50% inhibition; read-out: MIC C. auris TDG1912
Method: as §1, §2, §3, §4, §5

C. tropicalis NCPF8760 = assay: as above; type: cell-based; conditions: NCPF8760, Table 4, common panel, 24 hours, ≥50% inhibition, read-out: MIC C. tropicalis NCPF8760
Method: as §1, §2, §3, §4, §5

Candida auris TDG1102 = assay: as above; type: cell-based; conditions: Candidozyma auris, TDG1102; Table 4, extended panel; 24 hours, ≥50% inhibition; read-out: MIC Candida auris TDG1102
Method: as §1, §2, §3, §4, §5

Candida auris TDG2512 = assay: as above; type: cell-based; conditions: Candidozyma auris, TDG2512; Table 4, extended panel; 24 hours, ≥50% inhibition; read-out: MIC Candida auris TDG2512
Method: as §1, §2, §3, §4, §5

C. auris 8971 = assay: as above; type: cell-based, Candida auris; conditions: Candidozyma auris, 8971; Table 4, extended panel; 24 hours, ≥50% inhibition; read-out: MIC C. auris 8971
Method: as §1, §2, §6, §4, §5, §7

C. auris 8977 = assay: as above; type: cell-based, Candida auris; conditions: Candidozyma auris, 8977; Table 4, extended panel; 24 hours, ≥50% inhibition; read-out: MIC C. auris 8977
Method: as §1, §2, §6, §4, §5, §7

C. auris 8984 = assay: as above; type: cell-based, Candida auris; conditions: Candidozyma auris, 8984; Table 4, extended panel; 24 hours, ≥50% inhibition; read-out: MIC C. auris 8984
Method: as §1, §2, §6, §4, §5, §7

| SMILES | MIC (C. albicans NCPF3281) [µg/mL] | MIC (C. glabrata NCPF8018) [µg/mL] | MIC (C. krusei NCPF3876) [µg/mL] | MIC (C. parapsilosis NCPF3209) [µg/mL] | MIC (Candida auris TDG2211) [µg/mL] | MIC (Candida auris TDG2506) [µg/mL] | MIC (C. auris TDG1912) [µg/mL] | MIC (C. tropicalis NCPF8760) [µg/mL] | MIC (Candida auris TDG1102) [µg/mL] | MIC (Candida auris TDG2512) [µg/mL] | MIC (C. auris 8971) [µg/mL] | MIC (C. auris 8977) [µg/mL] | MIC (C. auris 8984) [µg/mL] |
| --- | --- | --- | --- | --- | --- | --- | --- | --- | --- | --- | --- | --- | --- |
| COCCOc1ccc(NC2CCN(CC(O)(Cn3cncn3)c3ccc(F)cc3F)CC2)cc1 (centres unmarked) [Example 96] | 0.0078 to 0.0156 (≈ 0.016 to 0.032 µM) | 4 (≈ 8.2 µM) | 0.5 (≈ 1.03 µM) | 0.0156 (≈ 0.032 µM) | 0.0156 to 0.06 (≈ 0.032 to 0.123 µM) | 0.06 (≈ 0.123 µM) | 0.125 (≈ 0.256 µM) | 1 (≈ 2.05 µM) | 0.06 (≈ 0.123 µM) | 4 (≈ 8.2 µM) | 0.06 (≈ 0.123 µM) | 0.06 (≈ 0.123 µM) | 0.25 (≈ 0.513 µM) |
| CN1CCC(Oc2ccc(NC3CCN(CC(O)(Cn4cncn4)c4ccc(F)cc4F)CC3)cc2)CC1 (centres unmarked) [Example 98] | 0.125 (≈ 0.237 µM) | 8 (≈ 15.2 µM) | 8 (≈ 15.2 µM) | 0.125 (≈ 0.237 µM) | > 8 | > 8 | > 8 | > 8 | > 8 | 2 (≈ 3.8 µM) | 8 (≈ 15.2 µM) | 8 (≈ 15.2 µM) | > 8 |
| Cc1ccc(-c2ccc(NC3C[C@@H]4CN(CC(O)(Cn5cncn5)c5ccc(F)cc5F)C[C@@H]4C3)cc2)cc1F (some centres unmarked) [Example 99] | ≤ 0.03 | 8 (≈ 14.6 µM) | 1 (≈ 1.83 µM) | ≤ 0.03 | 0.125 to 16 (≈ 0.228 to 29.2 µM) | 32 (≈ 58.4 µM) | 16 (≈ 29.2 µM) | > 32 | 16 to 32 (≈ 29.2 to 58.4 µM) | 0.5 (≈ 0.913 µM) | 1 to 4 (≈ 1.83 to 7.3 µM) | 1 to 4 (≈ 1.83 to 7.3 µM) | 32 (≈ 58.4 µM) |
| OC(CN1C[C@H]2CC(Nc3ccc(N4CCCCC4)cc3)C[C@H]2C1)(Cn1cncn1)c1ccc(F)cc1F (some centres unmarked) [Example 100] | ≤ 0.03 | 2 (≈ 3.83 µM) | 2 (≈ 3.83 µM) | ≤ 0.03 | 2 (≈ 3.83 µM) | 4 (≈ 7.65 µM) | 8 (≈ 15.3 µM) | 8 (≈ 15.3 µM) | 16 (≈ 30.6 µM) | 0.25 (≈ 0.478 µM) | 1 (≈ 1.91 µM) | 2 (≈ 3.83 µM) | 4 (≈ 7.65 µM) |
| OC(CN1C[C@H]2CC(Nc3ccc(F)cc3)C[C@H]2C1)(Cn1cncn1)c1ccc(F)cc1F (some centres unmarked) [Example 101] | ≤ 0.03 | 0.5 (≈ 1.09 µM) | 1 (≈ 2.19 µM) | ≤ 0.03 | 0.125 to 2 (≈ 0.273 to 4.37 µM) | 4 (≈ 8.74 µM) | 1 (≈ 2.19 µM) | 4 (≈ 8.74 µM) | 2 (≈ 4.37 µM) | 0.125 (≈ 0.273 µM) | 0.25 (≈ 0.546 µM) | 0.25 (≈ 0.546 µM) | 4 (≈ 8.74 µM) |
